Measured values as given in patent US8828930B2, “Hepatitis C virus NS3 protease inhibitors” (Merck Sharp & Dohme Corp., priority 2009, dated 2014).
Where two headings read alike, the source gives them in different places.

Legend:
NS3/4A protease gt 3a = NS3/4A protease gt 3a (Hepatitis C virus genotype 3a, UniProt Q81258); assay: HCV NS3 protease time-resolved fluorescence (TRF) assay, NS3/4A inhibitory activity (Ki), gt 3a; format: biochemical; details: NS3/4A enzyme
Procedure: (§1) The HCV NS3 protease inhibitory activity of the present compounds may be tested using assays known in the art. One such assay is HCV NS3 protease time-resolved fluorescence (TRF) assay as described below and in WO 2006/102087. Other examples of such assays are described in, for example, WO 2005/046712. HCV NS3 protease inhibitors, such as those described herein have a Ki less than 50 μM, such as less than 10 μM, and less than 100 nM. Ki is determined by an NS3 protease assay. The assay is performed in a final volume of 100 μl in assay buffer containing 50 mM HEPES, pH 7.5, 150 mM NaCl, 15% glycerol, 0.15% TRITON X-100, 10 mM DTT, and 0.1% PEG 8000. NS3 protease is preincubated with various concentrations of inhibitors in DMSO for 30 minutes. The reaction is initiated by adding the TRF peptide substrate (final concentration 100 nM). NS3 mediated hydrolysis of the substrate is quenched after 1 hour at room temperature with 100 μl of 500 mM MES, pH 5.5. Product fluorescence is detected using either a VICTOR V2 or FUSION fluorophotometer (PERKIN ELMER LIFE AND ANALYTICAL SCIENCES) with excitation at 340 nm and emission at 615 nm with a 400 μs delay. Testing concentrations of different enzyme forms are selected to result in a signal to background ratio (SIB) of 10-30. IC50 values are derived using a standard four-parameter fit to the data. Ki values are derived from IC50 values using the following formula, IC50=Ki(1+[S]/KM), Eqn (1), where [S] is the concentration of substrate peptide in the reaction and KM is the Michaelis constant. See Paola Gallinari et al., Modulation of Hepatitis C Virus NS3 Protease and Helicase Activities through the Interaction with NS4A, 38 BIOCHEM. 5620 (1999); Paola Gallinari et al., Multiple Enzymatic Activities Associated with Recombinant NS3 Protein of Hepatitis C Virus, 72(8) J. VIROLOGY 6758 (1998); Mariana Taliani et al., A Continuous Assay of Hepatitis C Virus Protease Based on Resonance Energy Transfer Depsipeptide Substrates, 240 ANAL. BIOCHEM. 60 (1996).
(§2) This NS3 protease assay was performed in a final volume of 100 μl assay buffer containing 50 mM HEPES, pH 7.5, 150 mM NaCl, 15% glycerol, 0.15% TRITON X-100, 10 mM DTT, and 0.1% PEG 8000. NS3/4A protease was pre-incubated with various concentrations of inhibitors in DMSO for 30 minutes. The reaction was initiated by adding the TRF peptide substrate (final concentration 100 nM). NS3 mediated hydrolysis of the substrate was quenched after 1 hour at RT with 100 μl of 500 mM MES, pH 5.5. Product fluorescence was detected using either a V1CTOR V2 or FUSION fluorophotometer (PERKIN ELMER LIFE AND ANALYTICAL SCIENCES) with excitation at 340 nm and emission at 615 nm with a 400 us delay. Testing concentrations of different enzyme forms were selected to result in a signal to background ratio (SIB) of 10-30. IC50 values were derived using a standard four-parameter fit to the data. K, values are derived from IC50 values using the following formula, IC50=Ki(1+[S]/KM), Eqn (1), where [S] is the concentration of substrate peptide in the reaction and KM is the Michaelis constant. See Paola Gallinari et al., Modulation of Hepatitis C Virus NS3 Protease and Helicase Activities through the Interaction with NS4A, 38 BIOCHEM. 5620 (1999); Paola Gallinari et al., Multiple Enzymatic Activities Associated with Recombinant NS3 Protein of Hepatitis C Virus, 72(8) J. VIROLOGY 6758 (1998); Mariana Milani et al., A Continuous Assay of Hepatitis C Virus Protease Based on Resonance Energy Transfer Depsipeptide Substrates, 240 ANAL. BIOCHEM. 60 (1996); Shi-Shan Mao et al., A time-resolved, internally quenched fluorescence assay to characterize inhibition of hepatitis C virus nonstructural protein 3-4A protease at low enzyme concentrations, 373 ANALYTICAL BIOCHEMISTRY 1 (2008). Measuring Compound Inhibitory Potency (Replicon EC50 (nM))

[1] = Plasma and liver concentrations and pharmacokinetics (Rat PK); format: in vivo; set-up: Rat PK 5 mpk AUC: unit not given here; details: for concentration at 4 h: 5 mg/kg, 5 mpk, liver concentration at 4 h; for Rat PK 5 mpk AUC: area under the plasma concentration/time curve
Procedure: Test compounds were dissolved in a suitable dosing vehicle for i.v. administration (e.g., 20%:60%:20% DMSO:PEG400:H2O) or per oral administration (e.g., 10% POLYSORBATE80:90% H2O or 100% PEG400). Animals were administered (n=2 or 3) using a crossover study design for non-rodents. Plasma samples were collected at time points between 2 minutes and 24 hours, and compound levels were determined by RP-LC/MS/MS. Liver samples were collected post-mortem in rat. Liver samples were weighed, homogenized, and diluted using techniques known to those skilled in the art, and compound levels were determined by RP-LC/MS/MS.
Pharmacokinetic parameters were calculated based on non-compartmental analysis (e.g., using WATSON, WINNOLIN). Predose concentrations that were below the limit of quantitation (BLQ) were assigned a value of 0, Standard pharmacokinetic parameters CLp, Vdss, half-life (only for IV), % F, Cmax, Tmax, AUC0-last, AUC0-infinity were calculated. AUC values were calculated using linear trapezoidal method for ascending concentrations and the log trapezoidal method for descending concentrations.

HCV gt 1b replicon = assay: HCV replicon assay, compound inhibitory potency (Replicon EC50); format: cell-based; details: Hepatitis C virus, GT1B
Procedure: Measurement of inhibition by compounds was performed using the HCV replicon system. Several different replicons encoding different HCV genotypes or mutations were used. In addition, potency measurements were made using different formats of the replicon assay, including different ways of measurements and different plating formats. See Jan M. Vrolijk et al., A replicon-based bioassay for the measurement of interferons in patients with chronic hepatitis C, 110 J. VIROLOGICAL METHODS 201 (2003); Steven S. Carroll et al., Inhibition of Hepatitis C Virus RNA Replication by 2′-Modified Nucleoside Analogs, 278(14) J. BIOLOGICAL CHEMISTRY 11979 (2003). However, the underlying principles are common to all of these determinations, and are outlined below.
Stable neomycin phosphotransferase encoding replicon-harboring cell lines were used, so all cell lines were maintained under G418 selection prior to the assay. In some cases the cell lines encoded a luciferase:NEO FUSION and could be assayed either directly by determination of RNA copy number, or indirectly through measurement of the luciferase activity.
To initiate an assay, replicon cells were plated in the presence of a dilution series of test compound in the absence of G418. Typically, the assays were performed in a 96-well plate format for manual operation, or a 384-well plate in an automated assay. Replicon cells and compound were incubated for 24 to 48 hours, depending on the assay. At the end of the assay, cells are washed free of media and compound and then lysed. For direct quantitation, RNA levels were measured by 32P-probe hybridization and protection, or in a TAQMAN-based assay and normalized to cellular cyclophilin A RNA levels. In some cases, luciferase activity was measured using a conventional luciferase assay. In all cases, EC50 determinations were calculated as a percent of a DMSO control by fitting the data to a four-parameter fit function.

NS3/4A protease gt 1b = NS3/4A protease gt 1b (Hepatitis C virus genotype 1b, UniProt P26663); assay: HCV NS3 protease time-resolved fluorescence (TRF) assay, NS3/4A inhibitory activity (Ki), gt 1b; format: biochemical; details: NS3/4A enzyme
Procedure: as §1, §2

[2] = target: NS3/4A protease gt 1b A156V (Hepatitis C virus genotype 1b, UniProt P26663, A1182V); assay: HCV NS3 protease time-resolved fluorescence (TRF) assay, NS3/4A inhibitory activity (Ki), gt 1b A156V; format: biochemical
Procedure: as §1, §2

[3] = 10% fetal bovine serum, read-out: gt 1b Replicon EC50 10% FBS
[4] = 50% normal human serum, read-out: gt 1b Replicon EC50 50% NHS

**Q.** Which Ki (NS3/4A protease gt 3a) does the source give for COc1ccc2nc3c(nc2c1)O[C@@H]1C[C@H]2C(=O)N[C@]4(C(=O)NS(=O)(=O)C5(C)CC5)C[C@H]4/C=C\CCCCC[C@H](NC(=O)O[C@]4(C)C[C@H]4CCCCC3)C(=O)N2C1 [Example 6, (3R,20R,22R,26S,32Z,34S,36R,39S)-9-Methoxyl-22-methyl-N-[(1-methylcyclopropyl)sulfonyl]-24,38,40-trioxo-4,23-dioxa-1,6,13,25,37-pentaazaheptacyclo[24.13.1.1^3,39.0^5,14.0^7,12.0^20,22.0^34,36]hentetraconta-5,7,9,11,13,32-hexaene-36-carboxamide] here?
**A.** 320 pM

**Q.** And the concentration at 4 h [1]?
**A.** 24 µM

**Q.** And the “Rat PK 5 mpk AUC” value [1]?
**A.** 0.16

**Q.** And the EC50 (HCV gt 1b replicon; [3])?
**A.** 1000 pM

**Q.** What about the EC50 (HCV gt 1b replicon; [4]) of the same molecule?
**A.** 4000 pM

**Q.** What about the Ki (NS3/4A protease gt 1b) of the same molecule?
**A.** 30 pM

**Q.** What about the Ki [2] of the same molecule?
**A.** 600 pM

**Q.** What does the source list for COc1ccc2nc3c(nc2c1)O[C@@H]1C[C@H]2C(=O)N[C@]4(C(=O)NS(=O)(=O)C5(C)CC5)C[C@H]4/C=C\CCCCC[C@H](NC(=O)O[C@@H]4CCC[C@H]4CCCCC3)C(=O)N2C1 [Example 2, (3R,20R,24R,28S,34Z,36S,38R,41S)-9-Methoxy-N-[(1-methylcyclopropyl)sulfonyl]-26,40,42-trioxo-4,25-dioxa-1,6,13,27,39-pentaazaheptacyclo[26.13.1.1^3,41.0^5,14.0^7,12.0^20,24.0^36,38]tritetraconta-5,7,9,11,13,34-hexaene-38-carboxamide]?
**A.** Ki (NS3/4A protease gt 3a): 480 pM; concentration at 4 h [1]: 43 µM; Rat PK 5 mpk AUC [1]: 0.55; EC50 (HCV gt 1b replicon; [3]): 2000 pM; EC50 (HCV gt 1b replicon; [4]): 10000 pM; Ki (NS3/4A protease gt 1b): 50 pM; Ki [2]: 1100 pM

**Q.** With C[C@@]12C[C@H]1CCCCCc1nc3ccccc3nc1O[C@@H]1C[C@H]3C(=O)N[C@]4(C(=O)NS(=O)(=O)C5CC5)C[C@H]4/C=C\CCCCC[C@H](NC(=O)O2)C(=O)N3C1 [Example 10, (3R,20R,22R,26S,32Z,34S,36R,39S)—N-(Cyclopropylsulfonyl)-22-methyl-24,38,40-trioxo-4,23-dioxa-1,6,13,25,37-pentaazaheptacyclo[24.13.1.1^3,39.0^5,14.0^7,12.0^20,22.0^34,36]hentetraconta-5,7,9,11,13,32-hexaene-36-carboxamide] as the molecule, how does the Ki (NS3/4A protease gt 3a) read?
**A.** 350 pM

**Q.** And the concentration at 4 h [1]?
**A.** 15 µM

**Q.** What about the “Rat PK 5 mpk AUC” value [1] of the same molecule?
**A.** 0.6

**Q.** And the EC50 (HCV gt 1b replicon; [3])?
**A.** 1000 pM

**Q.** And the EC50 (HCV gt 1b replicon; [4])?
**A.** 5000 pM

**Q.** And the Ki (NS3/4A protease gt 1b)?
**A.** 20 pM

**Q.** What about the Ki [2] of the same molecule?
**A.** 600 pM

**Q.** With O=C1N[C@H]2CCCCC/C=C\[C@@H]3C[C@@]3(C(=O)NS(=O)(=O)C3CC3)NC(=O)[C@@H]3C[C@H](CN3C2=O)Oc2nc3ccccc3nc2CCCCC[C@@H]2C[C@H]2O1 [Example 8, (3R,20R,22R,26S,32Z,34S,36R,39S)—N-(Cyclopropylsulfonyl)-24,38,40-trioxo-4,23-dioxa-1,6,13,25,37-pentaazaheptacyclo[24.13.1.1^3,39.0^5,14.0^7,12.0^20,22.0^34,36]hentetraconta-5,7,9,11,13,32-hexaene-36-carboxamide] as the molecule, how does the Ki (NS3/4A protease gt 3a) read?
**A.** 490 pM

**Q.** And the concentration at 4 h [1]?
**A.** 7 µM

**Q.** And the “Rat PK 5 mpk AUC” value [1]?
**A.** 0.06

**Q.** And the EC50 (HCV gt 1b replicon; [3])?
**A.** 1000 pM

**Q.** What about the EC50 (HCV gt 1b replicon; [4]) of the same molecule?
**A.** 13000 pM

**Q.** And the Ki (NS3/4A protease gt 1b)?
**A.** 20 pM

**Q.** And the Ki [2]?
**A.** 900 pM

**Q.** Which results are given for COc1ccc2nc3c(nc2c1)O[C@@H]1C[C@H]2C(=O)N[C@]4(C(=O)NS(=O)(=O)C5CC5)C[C@H]4/C=C\CCCCC[C@H](NC(=O)O[C@@H]4CCC[C@H]4CCCCC3)C(=O)N2C1 [Example 1, (3R,20R,24R,28S,34Z,36S,38R,41S)—N-(Cyclopropylsulfonyl)-9-methoxy-26,40,42-trioxo-4,25-dioxa-1,6,13,27,39-pentaazaheptacyclo[26.13.1.1^3,41.0^5,14.0^7,12.0^20,24,0^36,38]tritetraconta-5,7,9,11,13,34-hexaene-38-carboxamide]?
**A.** Ki (NS3/4A protease gt 3a): 450 pM; concentration at 4 h [1]: 3.6 µM; Rat PK 5 mpk AUC [1]: 0; EC50 (HCV gt 1b replicon; [3]): 2000 pM; EC50 (HCV gt 1b replicon; [4]): 9000 pM; Ki (NS3/4A protease gt 1b): 160 pM; Ki [2]: 1600 pM
